Measured values published in patent US8183005B1, “Pharmaceutical agents for treating HCV infections” (priority 2004, dated 2012).
Like-named read-outs stand apart in the source and are kept apart here.

Assays:
NS3, NS5A, and NS5B = experiment: Western blotting of NS3, NS5A and NS5B in replicon cells; format: cell-based, HCV; conditions: 100 nM, 48 hours and 96 hours
Procedure: Replicon cells were treated with 100 nM of the compound represented by formula (II) for the lengths of time indicated in FIG. 11 (48 hours and 96 hours). Western blot analysis was performed using a method similar to that of Example 5.

HCV replication = experiment: Recovery from replication inhibition by C2-ceramide, Western blot; format: cell-based; conditions: C2-ceramide added at the same time, 96 hours
Procedure: To elucidate whether the inhibitory activity of the compound represented by formula (II) against the HCV replicon is dependent on the sphingolipid biosynthetic pathway, cell-permeable ceramide, C2-ceramide (Sigma, Cat. No. A7191), was added to HCV replicon cells at the same time as the compound represented by formula (II), and these were cultured for 96 hours. These cell extracts were used to perform Western blot analysis using a method similar to that of Example 5.

[1] = system: raft proteins (NS5B, NS5A, caveolin-2); experiment: Effect on raft proteins, sucrose density gradient fractionation, Western blot or ELISA; format: cell-based; conditions: 72 hours
Procedure: 1 mM of the compound represented by formula (II) was added to the HCV replicon cells, then 72 hours later the cell extract was treated for one hour with a solubilizer, 1% Nonidet P-40 (Nacalai tesque, Cat. No. 252-23). Fractions 1 to 9 were separated by the sucrose density gradient fractionation method, and Western blot analysis was performed using a method similar to that of Example 5. […] Caveolin-2 expression was confirmed using a caveolin-2 antibody (BD Transduction, Cat. No 610684).
1 μM of the compound represented by formula (II) was added to the HCV replicon cells, then 72 hours later the cell extract was treated for one hour with 1% NP-40. Raft proteins (solubilizer-resistant) and non-raft proteins were separated using the sucrose density gradient fractionation method, diluted with PBS, concentrated, and then quantified by ELISA analysis.

in vitro = format: cell-based; conditions: human
Procedure: Firefly luciferase HCV replicon cells (Huh-3-1) suspended in Dulbecco's MEM (Gibco Cat. No. 10569) containing 5% fetal bovine serum (Hyclone Cat. No. SH30071.03) were plated onto a 96-well plate at 5000 cells/well, and cultured overnight under 5% CO2 at 37° C. Approximately 20 hours later, fumonisin B1 was added to a final concentration of 1.37 μM to 1000 μM by carrying out a sequential three-fold dilution, and the cells were then cultured for three more days. The assay was carried out by preparing two types of assay plates: one an opaque white plate and the other a transparent plate. After culturing, the white plate was subjected to the Steady-Glo Luciferase Assay System (Promega Cat. No. E2520). More specifically, 100 μL of reagent was added to each well, mixed three to four times using a pipette, and then stood for five minutes before luminescence was measured using 1450 MicroBeta TRILUX (WALLAC). IC50 (50% inhibitory concentration) of a pharmaceutical agent was calculated by subtracting the value obtained without adding the cells as the background value from all of the values, and then defining the level of inhibition without addition of the pharmaceutical agent as 0%. A Cell Counting Kit-8 (DOJINDO Laboratories, Cat. No. 341-07761) was used for the cytotoxicity assays. 10 μL of reagent was added to each well, mixed three to four times using a pipette, and then stood for approximately 30 minutes; measurements were performed when OD450 nm reached approximately 1.0. IC50 (50% inhibitory concentration) of a pharmaceutical agent was calculated by subtracting the value obtained without adding the cells as the background value from all of the values, and then defining the level of inhibition without addition of the pharmaceutical agent as 0%.
Based on the results of Example 5, the following method was used to measure the effect on cytotoxicity and HCV replicon activity under conditions in which Huh-3-1 cells show reduced LCB1 expression. More specifically, cells were plated onto a 96-well plate at 3500 cells per well, and cultured overnight under 5% CO2 at 37° C. 1.75 μL of 2 μM siRNA was added to 23.3 μL of ECR buffer (buffer included in the RNAiFect Kit), this was stirred vigorously, and then 0.31 μL of RNAiFect transfection reagent was added. This was stirred gently at room temperature and then allowed to stand for ten minutes. siRNA was added to a final concentration of 35 nM, and this was cultured for four days. The effect on cytotoxicity was determined by adding 10 μL of Cell Counting Kit-8 (DOJINDO Laboratories Cat. No. 341-07761) to the medium, mixing three to four times using a pipette, and then allowing this to stand for one hour at 37° C. Absorbance was then measured at 450 nm using a microplate reader Emax (Molecular Devices). After incubation, the medium was exchanged for fresh medium, and the plate was subjected to the Steady-Glo Luciferase Assay System (Promega Cat. No. E2520). 100 μL of reagent was added to each well, mixed three to four times using a pipette, and then allowed to stand for five minutes. Luminescence was then measured using 1450 MicroBeta TRILUX (WALLAC) to determine the HCV replicon activity. IC50 (50% inhibitory concentration) of a pharmaceutical agent was calculated by subtracting the value obtained without adding the cells as the background value from all of the values, and then defining the level of inhibition without addition of the pharmaceutical agent as 0%.
A Cell Counting Kit-8 (DOJINDO Laboratories, Cat. No. 341-07761) was used for the cytotoxicity assays. More specifically, 10 μL of Cell Counting Kit-8 was added to the transparent plate, and this was warmed at 37° C. for 30 to 60 minutes. Using a 96-well plate reader, absorbance was measured at a wavelength of 450 nm with a reference wavelength of 630 nm. […]

HCV-NS3 protein = experiment: Immunostaining of HCV-NS3 protein in HCV replicon cells; format: cell-based; conditions: 100 nM, 96 hours
Procedure: HCV replicon cells were treated with 100 nM of the compound represented by formula (II) for 96 hours, and then the cells were fixed in 3.7% formaldehyde. Blocking with 3% BSA was followed by incubation with an NS3 antibody (provided by F. Hoffman-La Roche), and then the washed cells were incubated with a Texas-Red-labeled rabbit IgG (Molecular probe), and analyzed using a fluorescence microscope (FIG. 10).

[2] = system: de novo syntheses of ceramide and sphingomyelin; experiment: De novo syntheses of ceramide and sphingomyelin, [14C]serine labeling; format: cell-based; conditions: HCV replicon cells, 48 hours treatment, [14C]serine three hours
Procedure: HCV replicon cells were treated for 48 hours with the compound represented by formula (II) at the concentrations indicated in FIG. 13. The cells were then labeled for three hours with [14C]serine. After extraction with chloroform/methanol (1:2, v/v), de novo synthesized ceramide (FIG. 13A) and sphingomyelin (FIG. 13B) were separated by thin layer chromatography.

## CCCCCCCC(=O)CCCCCC/C=C/[C@H](C(=O)N[C@@H](Cc1ccc(OCC=C(C)C)cc1)C(=O)O)[C@@](O)(CC(=O)O)C(=O)O [Compound (40)]
NS3, NS5A, and NS5B
  expression levels of NS3, NS5A and NS5B: reduced
HCV replication
  inhibition of HCV replication in presence of C2-ceramide: suppressed in a manner dependent on C2-ceramide concentration
[1]; 1 μM, 1% NP-40, ELISA
  dissociation of NS5B from the raft: significant dissociation of NS5B from the raft
[1]; 1 mM, 1% Nonidet P-40, Western blot
  effect on NS5A and caveolin-2: could not be confirmed
In vitro; HCV replicon cells, FIG. 9, read-out: cytotoxicity CC50
  CC50: > 50 nM
In vitro; Huh-3-1 replicon cells, three days, Cell Counting Kit-8, read-out: Cytotoxicity CC50
  CC50: > 5000 nM
HCV-NS3 protein
  HCV-NS3 protein around the nucleus (immunostaining): disappeared
[2]
  intracellular de novo synthesis of ceramide: inhibited
  intracellular de novo synthesis of sphingomyelin: inhibited
